# According to paper PMC4640650 (Science Advances, 2015):
# Biological target: ATP synthase c-subunit (c9 rotor ring) (Mycolicibacterium phlei, UniProt A0A5N5V239)
# Assay: X-ray cocrystal structure
# Assay type: binding
smiles,measurement,value
"COc1nc2ccc(Br)cc2cc1[C@@H](c1ccccc1)[C@@](O)(CCN(C)C)c1cccc2ccccc12 [BDQ, Bedaquiline]",IC50,20 to 25 nM
